Target: T1, b-Raf(V600E) (Homo sapiens, UniProt P15056, V600E)
T1 construct: made in house
Test: Raf/Mek Amplified Luminescence Proximity Homogeneous Assay (Alpha Screen), b-Raf(V600E)
Assay type: biochemical
Conditions: mutant b-Raf(V600E), read-out: mut-b-RAF (IC50 in uM)
Procedure, shortened: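 IC50 derived by non-linear regression from AlphaScreen luminescence of phospho-MEK (anti-p-MEK antibody). Reaction: ~4 pM b-Raf(V600E), ~10 nM kinase-dead biotinylated Mek, 60 min compound pre-incubation, then 3 h with ATP at room temperature in pH 7.5 Tris/MgCl2/DTT buffer, quenched with EDTA.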

T1 sequence (P15056 whole entry V600E): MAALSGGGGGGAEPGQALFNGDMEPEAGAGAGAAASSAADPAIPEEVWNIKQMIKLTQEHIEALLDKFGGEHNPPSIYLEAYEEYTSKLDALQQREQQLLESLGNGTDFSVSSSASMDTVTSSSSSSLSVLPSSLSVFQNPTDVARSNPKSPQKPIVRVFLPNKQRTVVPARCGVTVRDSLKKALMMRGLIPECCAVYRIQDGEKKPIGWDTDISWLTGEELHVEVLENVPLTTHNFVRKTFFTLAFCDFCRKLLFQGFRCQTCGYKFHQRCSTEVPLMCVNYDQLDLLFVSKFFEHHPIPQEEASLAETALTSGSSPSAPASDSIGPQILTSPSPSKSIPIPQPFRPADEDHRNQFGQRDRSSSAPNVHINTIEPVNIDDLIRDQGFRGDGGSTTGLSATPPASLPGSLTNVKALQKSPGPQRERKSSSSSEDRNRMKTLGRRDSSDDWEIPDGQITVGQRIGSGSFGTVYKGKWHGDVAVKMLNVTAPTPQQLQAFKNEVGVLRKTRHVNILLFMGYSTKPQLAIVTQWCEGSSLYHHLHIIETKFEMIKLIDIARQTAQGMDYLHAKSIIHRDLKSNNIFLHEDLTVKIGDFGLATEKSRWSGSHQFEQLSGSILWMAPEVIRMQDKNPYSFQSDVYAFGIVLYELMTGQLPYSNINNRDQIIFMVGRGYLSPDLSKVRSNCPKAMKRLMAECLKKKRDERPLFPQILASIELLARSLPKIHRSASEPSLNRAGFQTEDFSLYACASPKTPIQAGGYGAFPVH

| SMILES | IC50 [µM] |
| --- | --- |
| Nc1ncc(-c2[nH]c(-c3ccc(F)cc3)nc2-c2ccncc2)cc1F [Compound 131, 3-fluoro-5-(2-(4-fluorophenyl)-4-(pyridin-4-yl)-1H-imidazol-5-yl)pyridin-2-amine] | 0.174 |
| COc1cc(-c2[nH]c(-c3cccc(S(N)(=O)=O)c3)nc2-c2ccncc2)cnc1N [Compound 132, 3-(5-(6-amino-5-methoxypyridin-3-yl)-4-(pyridin-4-yl)-1H-imidazol-2-yl)benzenesulfonamide] | 0.001 |
| COc1ccc(Cl)cc1-c1nc(-c2ccncc2)c(-c2cnc(N)c(OC)c2)[nH]1 [Compound 133, 5-(2-(5-chloro-2-methoxyphenyl)-4-(pyridin-4-yl)-1H-imidazol-5-yl)-3-methoxypyridin-2-amine] | 0.0005 |
| COc1cc(-c2[nH]c(-c3ccc(F)cc3)nc2-c2ccoc2)cnc1N [Compound 134, 5-(2-(4-fluorophenyl)-4-(furan-3-yl)-1H-imidazol-5-yl)-3-methoxypyridin-2-amine] | 0.0014 |
| COc1cc(-c2[nH]c(-c3ccccc3Cl)nc2-c2ccncc2)cnc1N [Compound 135, 5-(2-(2-chlorophenyl)-4-(pyridin-4-yl)-1H-imidazol-5-yl)-3-methoxypyridin-2-amine] | 0.0004 |
| COc1cc(-c2[nH]c(-c3ccccc3C(F)(F)F)nc2-c2ccncc2)cnc1N [Compound 136, 3-methoxy-5-(4-(pyridin-4-yl)-2-(2-(trifluoromethyl)phenyl)-1H-imidazol-5-yl)pyridin-2-amine] | 0.0028 |
| COc1cc(-c2[nH]c(-c3ccccc3F)nc2-c2ccncc2)cnc1N [Compound 137, 5-(2-(2-fluorophenyl)-4-(pyridin-4-yl)-1H-imidazol-5-yl)-3-methoxypyridin-2-amine] | 0.0017 |
| COc1cc(-c2[nH]c(-c3ccccc3C)nc2-c2ccncc2)cnc1N [Compound 138, 3-methoxy-5-(4-(pyridin-4-yl)-2-o-tolyl-1H-imidazol-5-yl)pyridin-2-amine] | 0.0012 |
| COc1cc(-c2[nH]c(-c3cc(C)ccc3F)nc2-c2ccncc2)cnc1N [Compound 139, 5-(2-(2-fluoro-5-methylphenyl)-4-(pyridin-4-yl)-1H-imidazol-5-yl)-3-methoxypyridin-2-amine] | 0.0012 |
| COc1cc(-c2nc(C(C)C)[nH]c2-c2ccncc2)cnc1N [Compound 140, 5-(2-isopropyl-5-(pyridin-4-yl)-1H-imidazol-4-yl)-3-methoxypyridin-2-amine] | 0.0016 |
| Fc1ccc(-c2nc(-c3ccncc3)c(-c3ccc4nccn4c3)[nH]2)cc1 [Compound 141, 6-(2-(4-fluorophenyl)-4-(pyridin-4-yl)-1H-imidazol-5-yl)imidazo[1,2-a]pyridine] | 0.618 |
| Fc1ccc(-c2nc(-c3ccncc3)c(-c3cnc4c(c3)OCCN4)[nH]2)cc1 [Compound 142, 7-(2-(4-fluorophenyl)-4-(pyridin-4-yl)-1H-imidazol-5-yl)-3,4-dihydro-2H-pyrido[3,2-v][1,4]oxazine] | 0.382 |
| Nc1ncc(-c2[nH]c(-c3ccccc3)nc2-c2ccncc2)cc1O [Compound 143, 2-amino-5-(2-phenyl-4-(pyridin-4-yl)-1H-imidazol-5-yl)pyridin-3-ol] | 0.215 |
| Fc1ccc(-c2nc(-c3ccncc3)c(-c3cnc4[nH]ccc4c3)[nH]2)cc1 [Compound 144, 5-(2-(4-fluorophenyl)-4-(pyridin-4-yl)-1H-imidazol-5-yl)-1H-pyrrolo[2,3-b]pyridine] | 0.003 |
| COc1cc(-c2[nH]c(-c3ccc(C)cc3F)nc2-c2ccncc2)cnc1N [Compound 145, 5-(2-(2-fluoro-4-methylphenyl)-4-(pyridin-4-yl)-1H-imidazol-5-yl)-3-methoxypyridin-2-amine] | 0.0009 |
| COc1cc(-c2[nH]c(-c3ccc(Cl)cc3F)nc2-c2ccncc2)cnc1N [Compound 146, 5-(2-(4-chloro-2-fluorophenyl)-4-(pyridin-4-yl)-1H-imidazol-5-yl)-3-methoxypyridin-2-amine] | 0.0023 |
| COc1cc(-c2[nH]c(-c3ccc(F)cc3C)nc2-c2ccncc2)cnc1N [Compound 147, 5-(2-(4-fluoro-2-methylphenyl)-4-(pyridin-4-yl)-1H-imidazol-5-yl)-3-methoxypyridin-2-amine] | 0.0016 |
| COc1cc(-c2[nH]c(-c3ccc(F)c(C=O)c3)nc2-c2ccncc2)cnc1N [Compound 148, 5-(5-(6-amino-5-methoxypyridin-3-yl)-4-(pyridin-4-yl)-1H-imidazol-2-yl)-2-fluorobenzaldehyde] | 0.0015 |
| COc1cc(-c2[nH]c(-c3ccc(F)c(C)c3)nc2-c2ccncc2)cnc1N [Compound 149, 5-(2-(4-fluoro-3-methylphenyl)-4-(pyridin-4-yl)-1H-imidazol-5-yl)-3-methoxypyridin-2-amine] | 0.0006 |
| Fc1ccc(-c2nc(-c3ccncc3)c(-c3ccnc4[nH]ccc34)[nH]2)cc1 [Compound 150, 4-(2-(4-fluorophenyl)-4-(pyridin-4-yl)-1H-imidazol-5-yl)-1H-pyrrolo[2,3-b]pyridine] | 0.775 |
| Fc1ccc(-c2nc(-c3ccncc3)c(-c3cnc4[nH]cc(Br)c4c3)[nH]2)cc1 [Compound 151, 3-bromo-5-(2-(4-fluorophenyl)-4-(pyridin-4-yl)-1H-imidazol-5-yl)-1H-pyrrolo[2,3-b]pyridine] | 0.0007 |
| Cc1cc(-c2[nH]c(-c3ccc(F)cc3)nc2-c2ccncc2)cnc1N [Compound 152, 5-(2-(4-fluorophenyl)-4-(pyridin-4-yl)-1H-imidazol-5-yl)-3-methylpyridin-2-amine] | 0.0658 |
| COc1cccc(Nc2nccc(-c3[nH]c(-c4ccc(F)cc4)nc3-c3cnc(N)c(OC)c3)n2)c1 [Compound 153, 4-(4-(6-amino-5-methoxypyridin-3-yl)-2-(4-fluorophenyl)-1H-imidazol-5-yl)-N-(3-methoxyphenyl)pyrimidin-2-amine] | 0.0002 |
| COc1cc(-c2nc(C3=CCOCC3)[nH]c2-c2ccncc2)cnc1N [Compound 154, 5-(2-(3,6-dihydro-2H-pyran-4-yl)-5-(pyridin-4-yl)-1H-imidazol-4-yl)-3-methoxypyridin-2-amine] | 0.0033 |
| COc1cc(-c2nc(C3=CCNCC3)[nH]c2-c2ccncc2)cnc1N [Compound 155, 3-methoxy-5-(5-(pyridin-4-yl)-2-(1,2,3,6-tetrahydropyridin-4-yl)-1H-imidazol-4-yl)pyridin-2-amine] | 0.0162 |
| COc1cc(-c2nc(C3(O)CCN(C)CC3)[nH]c2-c2ccncc2)cnc1N [Compound 156, 4-(4-(6-amino-5-methoxypyridin-3-yl)-5-(pyridin-4-yl)-1H-imidazol-2-yl)-1-methylpiperidin-4-ol] | 0.0093 |
| CN(C)c1cncc(-c2[nH]c(-c3ccc(F)cc3)nc2-c2ccncc2)c1 [Compound 157, 5-(2-(4-fluorophenyl)-4-(pyridin-4-yl)-1H-imidazol-5-yl)-N,N-dimethylpyridin-3-amine] | 0.017 |
| COc1cc(-c2nc(-c3ccc(F)cc3)[nH]c2-c2ccnc(NC(C)C)n2)cnc1N [Compound 158, 4-(4-(6-amino-5-methoxypyridin-3-yl)-2-(4-fluorophenyl)-1H-imidazol-5-yl)-N-isopropylpyrimidin-2-amine] | 0.0051 |
| COc1cc(-c2nc(-c3ccc(F)cc3)[nH]c2-c2ccnc(NCC(C)C)n2)cnc1N [Compound 159, 4-(4-(6-amino-5-methoxypyridin-3-yl)-2-(4-fluorophenyl)-1H-imidazol-5-yl)-N-isobutylpyrimidin-2-amine] | 0.0015 |

— US20100003246A1, “Novel heterocyclic compounds and uses therof” (priority 2008, published 2010)
